Reference: ChEMBL document CHEMBL5523713, “Development of novel N-aryl-2,4-bithiazole-2-amine-based CYP1B1 degraders for reversing drug resistance” (Eur J Med Chem, 2024)
Activity calls are given as the source filed them. The rule behind the calls is not given here.

Legend:
[1] = test system: A549/TR; assay: Effect on total SRC protein level in human A549/Taxol cells incubated for 24 hrs by Western blotting analysis; assay type: functional, cell-based; conditions: dose 0.1-10 nM
[2] = target: T1, von Hippel-Lindau disease tumor suppressor/Cytochrome P450 1B1 (Homo sapiens, UniProt Q16678+P40337); assay: PROTAC activity at VHL/CYP1B1 in human A549/Taxol cells assessed as degradation by measuring fold change in remaining CYP1B1 level at 1 nM incubated for 24 hrs by Western blotting analysis (reference value: 1); assay type: ADME, cell-based; conditions: 0.001 µM
T1 sequence (P40337 whole entry, one chain of several): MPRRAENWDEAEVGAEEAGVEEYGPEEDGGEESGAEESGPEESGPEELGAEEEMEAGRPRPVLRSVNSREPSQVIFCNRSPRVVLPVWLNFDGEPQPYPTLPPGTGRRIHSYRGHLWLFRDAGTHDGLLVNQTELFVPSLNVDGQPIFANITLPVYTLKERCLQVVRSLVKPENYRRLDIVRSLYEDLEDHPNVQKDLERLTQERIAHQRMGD

[3] = test system: A549/TR; assay: Inhibition of cell invasion in human A549/Taxol cells at 0.1 to 10 nM incubated for 24 hrs by crystal violet staining based transwell assay; assay type: functional; conditions: dose 0.1-10 nM
[4] = target: T2, Cytochrome P450 1B1 (Homo sapiens, UniProt Q16678); assay: Inhibition of recombinant human CYP1B1 using 7-ethyl-O-resorufin as substrate incubated for 30 mins in presence of NADPH by EROD assay; assay type: ADME; conditions: human, recombinant enzyme, 0.5 h; time 30 min
T2 sequence (Q16678 whole entry): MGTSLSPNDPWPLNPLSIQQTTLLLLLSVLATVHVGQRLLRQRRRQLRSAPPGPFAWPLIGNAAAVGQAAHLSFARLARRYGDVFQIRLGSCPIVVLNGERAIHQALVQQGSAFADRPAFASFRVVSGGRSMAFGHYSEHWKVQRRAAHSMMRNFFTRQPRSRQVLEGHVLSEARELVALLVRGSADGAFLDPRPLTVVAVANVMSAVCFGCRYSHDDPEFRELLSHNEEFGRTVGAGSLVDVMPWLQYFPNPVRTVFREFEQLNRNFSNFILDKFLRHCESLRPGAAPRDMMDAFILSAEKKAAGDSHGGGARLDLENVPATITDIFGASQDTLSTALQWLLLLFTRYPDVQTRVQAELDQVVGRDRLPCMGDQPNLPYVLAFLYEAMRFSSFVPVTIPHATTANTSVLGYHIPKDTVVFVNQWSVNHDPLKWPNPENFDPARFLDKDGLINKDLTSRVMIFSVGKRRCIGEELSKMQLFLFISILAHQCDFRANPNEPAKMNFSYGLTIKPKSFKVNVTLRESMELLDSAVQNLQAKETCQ

[5] = target: T1, von Hippel-Lindau disease tumor suppressor/Cytochrome P450 1B1; assay: PROTAC activity at VHL/CYP1B1 in human A549/Taxol cells assessed as reduction in CYP1B1 level at 10 nM incubated for 1 hr by Western blotting analysis; assay type: ADME, cell-based; conditions: 0.01 µM
[6] = target: Proto-oncogene tyrosine-protein kinase Src (Homo sapiens) (UniProt P12931); assay: Inhibition of SRC phosphorylation in human A549/Taxol cells incubated for 24 hrs by Western blotting analysis; assay type: cell-based; conditions: dose 0.1-10 nM
Chain of Proto-oncogene tyrosine-protein kinase Src (Homo sapiens) (P12931 2-536 limits assumed): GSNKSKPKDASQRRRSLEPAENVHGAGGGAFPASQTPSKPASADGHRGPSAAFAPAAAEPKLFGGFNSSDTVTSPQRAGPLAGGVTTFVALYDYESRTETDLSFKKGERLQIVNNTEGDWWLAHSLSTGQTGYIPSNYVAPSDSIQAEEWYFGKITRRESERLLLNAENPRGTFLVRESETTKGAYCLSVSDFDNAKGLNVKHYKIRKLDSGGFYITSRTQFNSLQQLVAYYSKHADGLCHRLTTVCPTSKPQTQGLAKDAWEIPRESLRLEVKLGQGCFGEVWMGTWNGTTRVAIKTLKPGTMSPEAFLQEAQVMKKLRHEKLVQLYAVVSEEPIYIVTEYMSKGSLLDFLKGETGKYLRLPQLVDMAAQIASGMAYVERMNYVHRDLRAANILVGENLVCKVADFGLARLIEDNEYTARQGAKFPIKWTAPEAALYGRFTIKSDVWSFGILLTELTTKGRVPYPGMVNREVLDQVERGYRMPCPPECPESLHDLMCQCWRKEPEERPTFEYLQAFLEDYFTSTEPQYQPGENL

[7] = test system: A549/TR; assay: Inhibition of epithelial-to-mesenchymal transition in human A549/Taxol cells assessed as downregulation of vimentin protein expression at 0.1 to 10 nM incubated for 24 hrs by immunoblot analysis; assay type: functional, cell-based; conditions: dose 0.1-10 nM
[8] = target: T1, von Hippel-Lindau disease tumor suppressor/Cytochrome P450 1B1; assay: PROTAC activity at VHL/CYP1B1 in human A549/Taxol cells assessed as degradation by measuring fold change in remaining CYP1B1 level at 1000 nM incubated for 24 hrs by Western blotting analysis (reference value: 1); assay type: ADME, cell-based; conditions: 1 µM
[9] = test system: A549/TR; assay: Inhibition of cell migration in human A549/Taxol cells incubated for 48 hrs by wound healing assay; assay type: functional, cell-based; conditions: dose 0.1-10 nM
[10] = target: T1, von Hippel-Lindau disease tumor suppressor/Cytochrome P450 1B1; assay: PROTAC activity at VHL/CYP1B1 in human A549/Taxol cells assessed as reduction in CYP1B1 level at 1000 nM incubated for 24 hrs by Western blotting analysis; assay type: ADME, cell-based; design: scale not given: the % may be the effect or the level left; conditions: 1 µM
[11] = test system: A549/TR; assay: Inhibition of epithelial-to-mesenchymal transition in human A549/Taxol cells assessed as upregulation of E-cadherin protein expression at 0.1 to 10 nM incubated for 24 hrs by immunoblot analysis; assay type: functional, cell-based; conditions: dose 0.1-10 nM
[12] = target: von Hippel-Lindau disease tumor suppressor/Cytochrome P450 1A1 (Homo sapiens, UniProt P04798+P40337); assay: PROTAC activity at VHL/CYP1A1 (unknown origin); assay type: ADME, protein assay
Chain of von Hippel-Lindau disease tumor suppressor/Cytochrome P450 1A1 (P04798 whole entry): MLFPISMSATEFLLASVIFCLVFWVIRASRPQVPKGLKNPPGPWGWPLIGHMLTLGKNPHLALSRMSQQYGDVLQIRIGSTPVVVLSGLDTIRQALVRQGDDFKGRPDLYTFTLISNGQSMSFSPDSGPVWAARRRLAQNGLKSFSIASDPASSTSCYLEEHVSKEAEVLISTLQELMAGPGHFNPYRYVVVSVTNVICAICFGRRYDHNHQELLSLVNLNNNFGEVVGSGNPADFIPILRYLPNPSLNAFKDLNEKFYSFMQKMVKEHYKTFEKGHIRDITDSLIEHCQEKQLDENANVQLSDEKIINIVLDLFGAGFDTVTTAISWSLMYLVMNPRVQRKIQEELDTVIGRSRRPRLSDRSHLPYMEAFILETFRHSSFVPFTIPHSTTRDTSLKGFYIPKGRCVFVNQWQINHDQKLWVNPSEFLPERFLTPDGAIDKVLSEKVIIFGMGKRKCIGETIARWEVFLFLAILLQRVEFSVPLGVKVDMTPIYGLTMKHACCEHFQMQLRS
Chain of von Hippel-Lindau disease tumor suppressor/Cytochrome P450 1A1 (P40337 whole entry): as the sequence (P40337 whole entry, one chain of several) above

[13] = target: T1, von Hippel-Lindau disease tumor suppressor/Cytochrome P450 1B1; assay: PROTAC activity at VHL/CYP1B1 in human A549/Taxol cells assessed as reduction in CYP1B1 level at 10 nM incubated for 24 hrs by Western blotting analysis; assay type: ADME, cell-based; design: scale not given: the % may be the effect or the level left; conditions: 0.01 µM
[14] = target: Focal adhesion kinase 1 (Homo sapiens) (UniProt Q05397); assay: Inhibition of FAK phosphorylation in human A549/Taxol cells at 0.1 to 10 nM incubated for 24 hrs by Western blotting analysis; assay type: cell-based; conditions: dose 0.1-10 nM
Chain of Focal adhesion kinase 1 (Homo sapiens) (Q05397 2-1052 limits assumed): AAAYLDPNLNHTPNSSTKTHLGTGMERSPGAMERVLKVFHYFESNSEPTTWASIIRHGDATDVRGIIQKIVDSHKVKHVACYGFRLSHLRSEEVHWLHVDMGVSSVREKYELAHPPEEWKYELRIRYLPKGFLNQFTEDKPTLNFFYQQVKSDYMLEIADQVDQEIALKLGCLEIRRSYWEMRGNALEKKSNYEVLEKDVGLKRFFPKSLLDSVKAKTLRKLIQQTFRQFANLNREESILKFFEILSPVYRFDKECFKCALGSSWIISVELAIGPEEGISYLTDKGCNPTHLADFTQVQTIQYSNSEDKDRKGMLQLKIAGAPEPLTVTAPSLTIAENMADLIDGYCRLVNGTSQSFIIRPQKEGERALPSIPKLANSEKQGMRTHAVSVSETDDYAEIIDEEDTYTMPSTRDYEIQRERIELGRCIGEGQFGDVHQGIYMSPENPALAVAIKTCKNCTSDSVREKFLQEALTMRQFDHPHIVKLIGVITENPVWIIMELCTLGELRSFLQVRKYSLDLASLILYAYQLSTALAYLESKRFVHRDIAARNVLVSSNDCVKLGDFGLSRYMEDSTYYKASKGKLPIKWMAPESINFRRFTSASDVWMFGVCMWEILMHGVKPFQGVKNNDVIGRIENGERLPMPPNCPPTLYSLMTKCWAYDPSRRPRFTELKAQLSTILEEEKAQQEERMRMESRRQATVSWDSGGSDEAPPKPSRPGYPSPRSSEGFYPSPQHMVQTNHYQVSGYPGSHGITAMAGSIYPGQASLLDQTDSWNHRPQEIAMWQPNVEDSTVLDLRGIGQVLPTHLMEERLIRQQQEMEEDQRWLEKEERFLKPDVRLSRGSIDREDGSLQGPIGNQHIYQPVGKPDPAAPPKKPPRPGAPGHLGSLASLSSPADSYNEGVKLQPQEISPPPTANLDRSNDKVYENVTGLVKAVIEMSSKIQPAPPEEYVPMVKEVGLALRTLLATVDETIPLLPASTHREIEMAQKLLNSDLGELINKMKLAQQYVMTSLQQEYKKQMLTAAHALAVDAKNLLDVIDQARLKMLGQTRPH

[15] = test system: A549/TR; assay: Effect on paxillin protein level in human A549/Taxol cells at 0.1 to 10 nM incubated for 24 hrs by Western blotting analysis; assay type: functional, cell-based; conditions: dose 0.1-10 nM
[16] = test system: A549/TR; assay: Inhibition of epithelial-to-mesenchymal transition in human A549/Taxol cells assessed as downregulation of N-cadherin protein expression at 0.1 to 10 nM incubated for 24 hrs by immunoblot analysis; assay type: functional, cell-based; conditions: dose 0.1-10 nM
[17] = test system: A549/TR; assay: Downregulation of P-glycoprotein expression in human A549/Taxol cells at 0.1 to 10 nM by Western blotting analysis; assay type: functional, cell-based; conditions: dose 0.1-10 nM
[18] = test system: A549/TR; assay: Reversal of taxol resistance in human A549/Taxol cells assessed as decrease in cell viability at 1 to 10 nM incubated for 48 to 72 hrs by MTT assay; assay type: functional, cell-based; conditions: dose 1-10 nM, time 48-72 hrs
[19] = test system: A549/TR; assay: Reversal of taxol resistance in human A549/Taxol cells assessed as decrease in cell viability at 0.1 nM incubated for 48 to 72 hrs by MTT assay; assay type: functional, cell-based; conditions: time 48-72 hrs
[20] = test system: A549/TR; assay: Effect on total FAK protein level in human A549/Taxol cells at 0.1 to 10 nM incubated for 24 hrs by Western blotting analysis; assay type: functional, cell-based; conditions: dose 0.1-10 nM
[21] = target: T1, von Hippel-Lindau disease tumor suppressor/Cytochrome P450 1B1; assay: PROTAC activity at VHL/CYP1B1 in human A549/Taxol cells assessed as reduction in CYP1B1 level incubated for 24 hrs by Western blotting analysis; assay type: ADME, cell-based
[22] = target: T1, von Hippel-Lindau disease tumor suppressor/Cytochrome P450 1B1; assay: PROTAC activity at VHL/CYP1B1 in human A549/Taxol cells assessed as reduction in CYP1B1 level at 1 nM incubated for 24 hrs by Western blotting analysis; assay type: ADME, cell-based; design: scale not given: the % may be the effect or the level left; conditions: 0.001 µM
[23] = target: T3, Protein cereblon/Cytochrome P450 1B1 (Homo sapiens, UniProt Q16678+Q96SW2); assay: PROTAC activity at CRBN/CYP1B1 in human A549/Taxol cells assessed as degradation by measuring fold change in remaining CYP1B1 level at 1 nM incubated for 24 hrs by Western blotting analysis (reference value: 1); assay type: ADME, cell-based; conditions: 0.001 µM
T3 sequence (Q96SW2 whole entry, one chain of several): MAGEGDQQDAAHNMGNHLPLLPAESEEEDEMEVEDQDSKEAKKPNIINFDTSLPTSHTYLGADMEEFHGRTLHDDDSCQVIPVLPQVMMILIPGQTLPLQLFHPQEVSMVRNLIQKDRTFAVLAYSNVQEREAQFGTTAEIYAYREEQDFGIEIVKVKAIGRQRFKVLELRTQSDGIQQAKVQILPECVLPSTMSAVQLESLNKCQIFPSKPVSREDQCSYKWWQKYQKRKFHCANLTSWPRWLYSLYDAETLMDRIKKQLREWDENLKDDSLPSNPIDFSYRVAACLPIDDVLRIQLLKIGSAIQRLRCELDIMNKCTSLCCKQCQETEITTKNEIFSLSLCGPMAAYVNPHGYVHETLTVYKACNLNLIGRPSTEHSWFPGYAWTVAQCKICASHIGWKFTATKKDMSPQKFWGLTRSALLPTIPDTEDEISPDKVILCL

[24] = target: T3, Protein cereblon/Cytochrome P450 1B1; assay: PROTAC activity at CRBN/CYP1B1 in human A549/Taxol cells assessed as degradation by measuring fold change in remaining CYP1B1 level at 1000 nM incubated for 24 hrs by Western blotting analysis (reference value: 1); assay type: ADME, cell-based; conditions: 1 µM

SMILES: Cc1ncsc1-c1ccc([C@H](C)NC(=O)[C@@H]2C[C@@H](O)CN2C(=O)[C@@H](NC(=O)CCCCCCOc2ccccc2-c2csc(-c3csc(Nc4ccc(Cl)cc4)n3)n2)C(C)(C)C)cc1
- Activity [1]: Dose-Dependent Effect
- fold change (FC) [2]: 0.5
- inhibition [3]: Active
- inhibition (INH) [4]: Active
- Activity [5]: Active
- inhibition [6]: Active
- inhibition [7]: Active
- fold change (FC) [8]: 0.6
- inhibition [9]: Dose-Dependent Effect
- Activity [10]: 60%
- inhibition [11]: Active
- Activity [12]: Not Active
- Activity [13]: 80%
- inhibition [14]: Active
- Activity [15]: Active
- inhibition [16]: Active
- Activity [17]: Active
- Activity [18]: Active
- Activity [19]: Active
- Activity [20]: inactive
- DC50 [21]: 100 pM
- Activity [22]: 50%

SMILES: Cc1ncsc1-c1ccc([C@H](C)NC(=O)[C@@H]2C[C@@H](O)CN2C(=O)[C@@H](NC(=O)CCCCCCCCCOc2ccccc2-c2csc(-c3csc(Nc4ccc(Cl)cc4)n3)n2)C(C)(C)C)cc1
- fold change (FC) [2]: 1.5
- fold change (FC) [8]: 1.5

SMILES: Cc1ncsc1-c1ccc([C@H](C)NC(=O)[C@@H]2C[C@@H](O)CN2C(=O)[C@@H](NC(=O)CCCCCCCCCCCOc2ccccc2-c2csc(-c3csc(Nc4ccc(Cl)cc4)n3)n2)C(C)(C)C)cc1
- fold change (FC) [2]: 0.9
- fold change (FC) [8]: 2

SMILES: Cc1ncsc1-c1ccc([C@H](C)NC(=O)[C@@H]2C[C@@H](O)CN2C(=O)[C@@H](NC(=O)CCCCCCCCOc2ccccc2-c2csc(-c3csc(Nc4ccc(Cl)cc4)n3)n2)C(C)(C)C)cc1
- fold change (FC) [2]: 0.7
- fold change (FC) [8]: 0.6

SMILES: Cc1ncsc1-c1ccc([C@H](C)NC(=O)[C@@H]2C[C@@H](O)CN2C(=O)[C@@H](NC(=O)CCCCCOc2ccccc2-c2csc(-c3csc(Nc4ccc(Cl)cc4)n3)n2)C(C)(C)C)cc1
- fold change (FC) [2]: 0.5
- fold change (FC) [8]: 1.5

SMILES: O=C1CCC(N2C(=O)c3cccc(NC(=O)CN4CCN(CCCCCCCC(=O)Nc5ccc(-c6csc(-c7csc(Nc8ccc(Cl)cc8)n7)n6)cc5)CC4)c3C2=O)C(=O)N1 (centres undefined)
- fold change (FC) [23]: 0.7
- fold change (FC) [24]: 1

SMILES: O=C1CCC(N2Cc3c(NC(=O)CCCCCCCCCC(=O)Nc4ccc(-c5csc(-c6csc(Nc7ccc(Cl)cc7)n6)n5)cc4)cccc3C2=O)C(=O)N1 (centres undefined)
- fold change (FC) [23]: 1.1
- fold change (FC) [24]: 1.3

SMILES: O=C1CCC(N2Cc3c(NC(=O)CCCCCCCCCCCC(=O)Nc4ccc(-c5csc(-c6csc(Nc7ccc(Cl)cc7)n6)n5)cc4)cccc3C2=O)C(=O)N1 (centres undefined)
- fold change (FC) [23]: 0.7
- fold change (FC) [24]: 1

SMILES: Cc1ncsc1-c1ccc([C@H](C)NC(=O)[C@@H]2C[C@@H](O)CN2C(=O)[C@@H](NC(=O)CCCCCCCOc2ccccc2-c2csc(-c3csc(Nc4ccc(Cl)cc4)n3)n2)C(C)(C)C)cc1
- fold change (FC) [2]: 0.4
- fold change (FC) [8]: 0.2
- Activity [10]: > 70%
- Activity [22]: 60%

SMILES: Cc1ncsc1-c1ccc([C@H](C)NC(=O)[C@@H]2C[C@@H](O)CN2C(=O)[C@@H](NC(=O)Cn2cc(CCCCCOc3ccccc3-c3csc(-c4csc(Nc5ccc(Cl)cc5)n4)n3)nn2)C(C)(C)C)cc1
- fold change (FC) [2]: 1.1
- fold change (FC) [8]: 0.9

SMILES: Cc1ncsc1-c1ccc([C@H](C)NC(=O)[C@@H]2C[C@@H](O)CN2C(=O)[C@@H](NC(=O)Cn2cc(COCCOCCOc3ccccc3-c3csc(-c4csc(Nc5ccc(Cl)cc5)n4)n3)nn2)C(C)(C)C)cc1
- fold change (FC) [2]: 1.1
- fold change (FC) [8]: 1.3
